In patent US20230130066A1, “USE OF CYCLODEXTRINS IN DISEASES AND DISORDERS INVOLVING PHOSPHOLIPID DYSREGULATION” (priority 2017, published 2023):
“Also recorded” adds a separate entry of the source. Where two headings read alike, the source gives them in different places. Marks after values point to notes of the source that are not given here.

Tests used:
[1] = system: transferrin endocytosis; conditions: 10 mM; cited from earlier work
[2] = LDL-receptor knockout mice, Western diet (21% milk fat) with 2.1% α-CD; cited from earlier work
[3] = Table 3; cited from earlier work
[4] = animal studies; cited from earlier work
[5] = in vivo; cited from earlier work
[6] = system: human keratinocytes; conditions: cited from earlier work
[7] = system: rats; conditions: cited from earlier work
[8] = system: HaCaT keratinocytes; conditions: v. βCD; cited from earlier work
[9] = system: enlarged lysosomes in fibroblasts; conditions: about 6 mM α-CD vs about 8 mM HP-β-CD; cited from earlier work
[10] = system: MCF-7 cells; assay: Wound healing / gap closure migration assay, MCF-7; format: cell-based, human; conditions: extrapolated from the results in FIG. 35
Procedure: Cells were cultured in 24-well culture plates (Cytoselect CBA-120, 0.9 mm wound healing/gap closure migration assay) for 24 h with wound healing insert in place.
Protocol: Warm up the 24-well plate (CBA-120, Cell BioLabs Inc.) with 0.9 mm CytoSelect Wound Healing Inserts at room temperature for 10 minutes. Using sterile forceps, orient the desired number of inserts in the plate wells with their “wound field” aligned in the same direction. Create a cell suspension containing 0.5-1.0×10^6 cells/ml in media containing 10% fetal bovine serum (FBS). Add 500 μL of cell suspension to each well by carefully inserting the pipette tip through the open end at the top of the insert. For optimal cell dispersion, add 250 μL of cell suspension to either side of the open ends at the top of the insert. Incubate cells in a cell culture incubator for 12-24 hours. Carefully remove the insert from the well to begin the wound healing assay. Use sterile forceps to grab and lift the insert slowly from the plate well. Slowly aspirate and discard the media from the wells. Wash wells with media to remove dead cells and debris. Finally, add media to wells to keep cells hydrated. Repeat wash if wells still have debris or unattached cells. When washing is complete, add media with FBS and/or compounds to continue cell culture and wound healing process. Agents that inhibit or stimulate cell migration can be added directly to the wells. Incubate cells in a cell culture incubator (2 hours) and then wash cells with PBS and then add fresh media without compounds. Incubate 12-24 hours before wash and fixing. Remove the fixation solution and add 400 μL of Cell Stain Solution to each well. Allow the stain to incubate with the cells for 15 minutes at room temperature. Aspirate and discard the solution. Carefully wash each stained well 3× with deionized water. Discard washes and allow cells to dry at room temperature. Cells that migrated into the wounded area or protruded from the border of the wound were visualized and photographed under an inverted microscope. Determine the surface area of the defined wound area: Total Surface Area=0.9 mm x length. Determine the surface area of the migrated cells into the wound area: Migrated Cell Surface Area=length of cell migration (mm)×2×length. Percent Closure (%)=Migrated Cell Surface Area/Total Surface Area x 100.

[11] = system: erythrocytes; conditions: cited from earlier work
[12] = 12 mM cyclodextrin, 5 μM A2E, blue-light irradiation or 1 d in the dark; cited from earlier work
[13] = system: BBB; conditions: cited from earlier work
[14] = system: human erythrocytes; conditions: cited from earlier work
[15] = system: NPC cells; conditions: cited from earlier work
[16] = cited from earlier work
[17] = parenteral delivery; cited from earlier work
[18] = system: rats; conditions: rat, in vivo, iv; cited from earlier work
[19] = cited from earlier work; remark: listed apart in the source
[20] = system: rats; conditions: cited from earlier work; for nephrosis, 1, 2, 3, 4, or 7 daily doses s.c.: 0.100 g/kg daily

OC[C@H]1O[C@@H]2O[C@H]3[C@H](O)[C@@H](O)[C@@H](O[C@H]4[C@H](O)[C@@H](O)[C@@H](O[C@H]5[C@H](O)[C@@H](O)[C@@H](O[C@H]6[C@H](O)[C@@H](O)[C@@H](O[C@H]7[C@H](O)[C@@H](O)[C@@H](O[C@H]1[C@H](O)[C@H]2O)O[C@@H]7CO)O[C@@H]6CO)O[C@@H]5CO)O[C@@H]4CO)O[C@@H]3CO [α-CD, alpha-cyclodextrin]
reduction of transferrin endocytosis [1]: 20% | decrease of plasma PLs [2]: 17.5% | Solubility in water [3]: 130 to 145 g/L | ototoxicity [4]: did not show ototoxicity | tolerance in cyclosporine eye-drops [5]: well tolerated | apoptotic cell death [6]: not apoptotic | nephrosis, single dose s.c. ([7]; 0.100 g/kg): 0.100 no changes | nephrosis, single dose s.c. ([7]; 1.000 g/kg): 1.000 changes seen | toxicity in HaCaT cells (proliferation, caspase activity, lactose dehydrogenase) [8]: lower toxicity | reducing lysosomal storage [9]: more effective | dose with the same efficacy in preventing migration of cancer cells as 2000 mg/kg/d bCD [10]: 700 mg/kg/day | phospholipids released ([11]; 10 mM): 30% | extraction of cholesterol ([11]; erythrocytes): negligible | protection of A2E against oxidation [12]: not | BBB breakdown [13]: 1 mM | toxicity on BBB in vitro [13]: more toxic | hemolytic activity / tolerance of human erythrocytes [14]: lower than that of both β-CD and HP-β-CD; also recorded: tolerate α-CD better then β-CD | cholesterol accumulation [15]: can reduce cholesterol accumulation | oral absorption in rats [16]: 2-3% | excretion into the urine [17]: excreted almost completely in an intact form | single dose i.v. LD50 [18]: 0.788/1.008 * g/kg | i.v. toxicity, 1 g daily [19]: 1 died | nephrosis, 1, 2, 3, 4, or 7 daily doses s.c. ([20]; listed as α-cyclodextrin): not apparent | nephrosis, 1, 2, 3, 4, or 7 daily doses s.c. [20]: 0.100 no nephrosis | deaths, daily doses s.c. ([20]; 1.000 g/kg daily, listed as α-cyclodextrin): 1 died after 2 days | deaths, daily doses s.c. ([20]; 1.000 g/kg daily): one died after 2 days | nephrosis, daily doses s.c. ([20]; 1.000 g/kg daily): 1.000 severe
